Drawing on patent US10450309B2, “Aryl sulfonamides as BLT1 antagonists” (Merck Sharp & Dohme Corp., priority 2015, dated 2019), this text covers EC50 for 14 compounds.

The target in this test is T1, human BLT1 receptor (Homo sapiens, UniProt Q15722).
T1 construct: expressed in transfected cells; host or cells: HEK293
T1 sequence (Q15722 whole entry): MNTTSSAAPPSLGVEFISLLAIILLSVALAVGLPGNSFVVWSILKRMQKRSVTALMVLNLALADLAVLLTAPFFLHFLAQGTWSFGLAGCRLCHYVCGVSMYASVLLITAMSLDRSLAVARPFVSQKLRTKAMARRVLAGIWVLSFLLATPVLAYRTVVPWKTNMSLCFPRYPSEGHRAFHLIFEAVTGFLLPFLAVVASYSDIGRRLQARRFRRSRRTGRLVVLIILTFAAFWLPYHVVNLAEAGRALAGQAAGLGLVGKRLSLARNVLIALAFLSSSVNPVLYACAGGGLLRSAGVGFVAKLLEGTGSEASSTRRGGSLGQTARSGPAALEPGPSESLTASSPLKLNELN
In words: BLT-1 cAMP Assay. The format is cell-based. The settings on record: antagonist mode; HEK293 cells recombinantly expressing human BLT1; forskolin 4 μM and LTB4 2 nM. On the procedure: The ability of compounds to antagonize the human BLT1 receptor was determined using a kit to measure changes in intracellular cyclic AMP levels (cAMP dynamic assay kit, Cisbio Cat. No. 62AM4PEC). HEK293 cells recombinantly expressing human BLT1, previously frozen in Recovery Medium (Life Technologies, Cat. No. 12648-010) were thawed and diluted into assay medium (HBSS (Hyclone SH 30268.01), 20 mM HEPES (Gibco 15630-106), 800 μM IBMX (Sigma 15879), 0.1% DTPA BSA (Perkin Elmer CR84-100)). The cell suspension was centrifuged at 200×g for 10 min and then resuspended in fresh assay medium to a density of 2.5×10^5 cells/mL. A Labcyte Echo 550 acoustic dispenser was used to transfer 25 nL of test compound dissolved in DMSO into the wells of a dry 384-well plate (Greiner 784075). All subsequent liquid additions were performed using a BIORAPTR (FRD; Beckman Coulter). Next, 5 μL of cell suspension was added and incubated for 20 min. at 37° C. and 5% CO2 in a humidified plastic tray. To test for agonist activity 5 μL of assay buffer containing forskolin (Sigma F-6886. 4 μM for BLT1) was added and incubated for 30 minutes at 37° C. and 5% CO2 in a humidified plastic tray. To test for antagonist activity 5 μL of assay buffer containing forskolin (Sigma F-6886. 4 μM for BLT1) and either LTB4 (Sigma Aldrich L0517; 2 nM BLT1) was added and incubated for 30 minutes at 37° C. and 5% CO2 in a humidified plastic tray.
The levels of cAMP were detected using the CisBio kit following the manufacturer's instructions: cAMP-d2 vial was reconstituted with distilled water and then diluted accordingly with conjugate & lysis buffer. 5 μL of cAMP-d2 working solution was added to all of the wells of the assay plate. cAMP-Cryptate vial was reconstituted with distilled water and then diluted accordingly with conjugate & lysis buffer. 5 μL of cAMP-Cryptate working solution were added to the assay plate. The assay plate was shaken for 3 minutes and incubated at room temperature for 45 minutes, then read on Perkin Elmer Envision. cAMP standard curve and fit data were plotted using a 4 parameter dose response curve fitting algorithm to fit curve. A 4-parameter curve fit (Max, min, log EC50 and slope) was used to transform fluorescent 665 nm/615 nm ratio signal to cAMP concentration. After normalization to treated and untreated controls, the percent effect of signal at each compound concentration was calculated. The plot of percent effect versus the log of compound concentration was fit with a 4-parameter concentration response equation to calculate EC50 values. Compound concentrations tested were 10 000, 3 333, 1 111, 370.4, 123.4, 41.2, 13.7, 4.6, 1.5 and 0.5 nM with 0.25% residual DMSO.
As a reminder, the EC50 is the midpoint of the concentration-response curve. As for “1,1,1-Trifluoro-N-(2-((3R,4S or 3S,4R)-4-hydroxy-3-((5-(5-methylthiazol-2-yl)pyridin-2-yl)methyl)chroman-7-yl)phenyl)methanesulfonamide [Example 6]”, the EC50 worked out at 187 nM.
With “1,1,1-Trifluoro-N-(2-((3S,4R or 3R,4S)-4-hydroxy-3-((5-(5-methylthiazol-2-yl)pyridin-2-yl)methyl)chroman-7-yl)phenyl)methanesulfonamide [Example 7]” the figure was 4 nM; with `O=S(=O)(Nc1ccc(F)cc1-c1ccc2c(c1)OC[C@H](Cc1ccc(-c3cncs3)cn1)[C@H]2O)C(F)(F)F` (racemic) [Example 8, 1,1,1-trifluoro-N-{4-fluoro-2-[(rac-trans) 4-hydroxy-3-{[5-(1,3-thiazol-5-yl)pyridin-2-yl]methyl}-3,4-dihydro-2H-chromen-7-yl]phenyl}methanesulfonamide], 24 nM; with `O=S(=O)(Nc1ccccc1-c1ccc2c(c1)OC[C@@H](Cc1ccc(-c3cncs3)cn1)[C@@H]2O)C(F)(F)F` (single isomer, unassigned) [Example 1, 1,1,1-Trifluoro-N-(2-((3R,4S or 3S,4R)-4-hydroxy-3-((5-(thiazol-5-yl)pyridin-2-yl)methyl)chroman-7-yl)phenyl)methanesulfonamide], 82 nM.
With `O=S(=O)(Nc1ccccc1-c1ccc2c(c1)OC[C@H](Cc1ccc(-c3cncs3)cn1)[C@H]2O)C(F)(F)F` (single isomer, unassigned) [Example 2, 1,1,1-Trifluoro-N-(2-((3S,4R or 3R,4S)-4-hydroxy-3-((5-(thiazol-5-yl)pyridin-2-yl)methyl)chroman-7-yl)phenyl)methanesulfonamide] the figure was 8 nM.
Next, `Cn1cc(-c2ccc(C[C@H]3COc4cc(-c5ccccc5NS(=O)(=O)C(F)(F)F)ccc4[C@@H]3O)nc2)cn1` (single isomer, unassigned) [Example 3, 1,1,1-Trifluoro-N-(2-((3S,4R or 3R,4S)-4-hydroxy-3-((5-(1-methyl-1H-pyrazol-4-yl)pyridin-2-yl)methyl)chroman-7-yl)phenyl)methanesulfonamide]: 5 nM.
As to `Cn1cc(-c2ccc(C[C@@H]3COc4cc(-c5ccccc5NS(=O)(=O)C(F)(F)F)ccc4[C@H]3O)nc2)cn1` (single isomer, unassigned) [Example 4, 1,1,1-Trifluoro-N-(2-((3R,4S or 3S,4R)-4-hydroxy-3-((5-(1-methyl-1H-pyrazol-4-yl)pyridin-2-yl)methyl)chroman-7-yl)phenyl)methanesulfonamide], the EC50 amounted to 140 nM.
Take `Cn1nccc1-c1ccc(C[C@@H]2COc3cc(-c4ccccc4NS(=O)(=O)C(F)(F)F)ccc3[C@H]2O)nc1` (single isomer, unassigned) [Example 5, 1,1,1-Trifluoro-N-(2-((3,4-trans)-4-hydroxy-3-((5-(1-methyl-1H-pyrazol-5-yl)pyridin-2-yl)methyl)chroman-7-yl)phenyl)methanesulfonamide]: the EC50 was found to be 294 nM.
With `O=S(=O)(Nc1ccccc1-c1ccc2c(c1)OC[C@@H](Cc1ccc(-c3cscn3)cn1)[C@@H]2O)C(F)(F)F` (single isomer, unassigned) [Example 9, 1,1,1-Trifluoro-N-(2-((3,4-trans)-4-hydroxy-3-((5-(thiazol-4-yl)pyridin-2-yl)methyl)chroman-7-yl)phenyl)methanesulfonamide] the figure was 107 nM; with `O=S(=O)(Nc1ccccc1-c1ccc2c(c1)OC[C@@H](Cc1ccc(-c3nccs3)cn1)[C@@H]2O)C(F)(F)F` (single isomer, unassigned) [Example 10, 1,1,1-Trifluoro-N-(2-((3,4-trans)-4-hydroxy-3-((5-(thiazol-2-yl)pyridin-2-yl)methyl)chroman-7-yl)phenyl)methanesulfonamide], 20 nM; with `O=S(=O)(Nc1ccccc1-c1ccc2c(c1)OC[C@@H](Cc1ccc(-c3nccs3)cn1)[C@@H]2O)C(F)(F)F` (single isomer, unassigned) [Example 11, 1,1,1-Trifluoro-N-(2-((3,4-trans)-4-hydroxy-3-((5-(thiazol-2-yl)pyridin-2-yl)methyl)chroman-7-yl)phenyl)methanesulfonamide], 16 nM.
Next, `O=S(=O)(Nc1ccccc1-c1ccc2c(c1)OC[C@@H](Cc1ccc(-c3cscn3)cn1)[C@@H]2O)C(F)(F)F` (single isomer, unassigned) [Example 12, 1,1,1-Trifluoro-N-(2-((3,4-trans)-4-hydroxy-3-((5-(thiazol-4-yl)pyridin-2-yl)methyl)chroman-7-yl)phenyl)methanesulfonamide]: 4 nM; `O=S(=O)(Nc1ccc(F)cc1-c1ccc2c(c1)OC[C@H](Cc1ccc(-c3cncs3)cn1)[C@H]2O)C(F)(F)F` (single isomer, unassigned) [Example 13, 1,1,1-trifluoro-N-{4-fluoro-2-[(3S,4R or 3R,4S)-4-hydroxy-3-{[5-(1,3-thiazol-5-yl)pyridin-2-yl]methyl}-3,4-dihydro-2H-chromen-7-yl]phenyl}methane-sulfonamide]: 4 nM.
With `O=S(=O)(Nc1ccc(F)cc1-c1ccc2c(c1)OC[C@@H](Cc1ccc(-c3cncs3)cn1)[C@@H]2O)C(F)(F)F` (single isomer, unassigned) [Example 14, 1,1,1-trifluoro-N-{4-fluoro-2-[(3R,4S or 3S,4R)-4-hydroxy-3-{[5-(1,3-thiazol-5-yl)pyridin-2-yl]methyl}-3,4-dihydro-2H-chromen-7-yl]phenyl}methane-sulfonamide], the 50% effective concentration (EC50) is 31 nM.
